pIC50: −log10 of the molar value.
Key:
[1] = biological target: T1, Neuronal acetylcholine receptor subunit alpha-4 (Rattus norvegicus, UniProt P09483); assay: Blockage of Nicotinic acetylcholine receptor alpha4-beta2 noncompetitively in cultured hippocampal neurons; format: tissue-based, Hippocampus
[2] = biological target: T1, Neuronal acetylcholine receptor subunit alpha-4; assay: Blockage of Nicotinic acetylcholine receptor alpha4-beta2 noncompetitively in CA1 stratum radiatum interneurons
[3] = biological target: T1, Neuronal acetylcholine receptor subunit alpha-4; assay: Blockage of Nicotinic acetylcholine receptor alpha4-beta2 noncompetitively in acute hippocampal slices; format: tissue-based, Hippocampus
[4] = Increase in the charge carried by ACh- induced currents in CA1 pyramidal neurons of […] cultures by naltrexone (0.3 uM); format: functional, Pyramidal neuron
[5] = biological target: T2, Neuronal acetylcholine receptor subunit alpha-7 (Homo sapiens, UniProt P36544); assay: Blockage of Nicotinic acetylcholine receptor alpha-7 noncompetitively in hippocampal primary cultures; format: tissue-based, Hippocampus
[6] = biological target: T2, Neuronal acetylcholine receptor subunit alpha-7; assay: Blockage of Nicotinic acetylcholine receptor alpha-7 noncompetitively in cultured hippocampal neurons; format: tissue-based, Hippocampus
[7] = Increase in the charge carried by choline- induced currents in CA1 pyramidal neurons of […] cultures by naltrexone (0.3 uM); format: functional, Pyramidal neuron
[8] = Increase in the charge carried by ACh- induced currents in […] organotypic hippocampal cultures by naltrexone (0.3 uM); format: functional, Hippocampus
[9] = Increase in the charge carried by choline- induced currents in […] organotypic hippocampal cultures by naltrexone (0.3 uM); format: functional, Hippocampus
HEK293 [10] = assay: Decay-time constant of ACh ([…])-evoked currents in the presence of 300 uM naltrexone in HEK293 cells; format: functional, Homo sapiens
HEK293 [11] = assay: Decay-time constant of ACh (100 uM) -evoked currents in the absence of naltrexone in HEK293 cells; format: functional, Homo sapiens
HEK293 [12] = assay: Decay-time constant of ACh ([…])-evoked currents in the presence of 1 uM naltrexone in HEK293 cells; format: functional, Homo sapiens
HEK293 [13] = assay: Decay-time constant of ACh ([…])-evoked currents in the presence of 10 uM naltrexone in HEK293 cells; format: functional, Homo sapiens
HEK293 [14] = assay: Decay-time constant of ACh ([…])-evoked currents in the presence of 3 uM naltrexone in HEK293 cells; format: functional, Homo sapiens
HEK293 [15] = assay: Decay-time constant of ACh ([…])-evoked currents in the presence of 100 uM naltrexone in HEK293 cells; format: functional, Homo sapiens
HEK293 [16] = assay: Decay-time constant of ACh ([…])-evoked currents in the presence of 0.1 uM naltrexone in HEK293 cells; format: functional, Homo sapiens
HEK293 [17] = assay: Decay-time constant of ACh ([…])-evoked currents in the presence of 30 uM naltrexone in HEK293 cells; format: functional, Homo sapiens
HEK293 [18] = assay: Decay-time constant of ACh ([…])-evoked currents in the presence of 0.3 uM naltrexone in HEK293 cells; format: functional, Homo sapiens

T1 sequence (P09483 whole entry): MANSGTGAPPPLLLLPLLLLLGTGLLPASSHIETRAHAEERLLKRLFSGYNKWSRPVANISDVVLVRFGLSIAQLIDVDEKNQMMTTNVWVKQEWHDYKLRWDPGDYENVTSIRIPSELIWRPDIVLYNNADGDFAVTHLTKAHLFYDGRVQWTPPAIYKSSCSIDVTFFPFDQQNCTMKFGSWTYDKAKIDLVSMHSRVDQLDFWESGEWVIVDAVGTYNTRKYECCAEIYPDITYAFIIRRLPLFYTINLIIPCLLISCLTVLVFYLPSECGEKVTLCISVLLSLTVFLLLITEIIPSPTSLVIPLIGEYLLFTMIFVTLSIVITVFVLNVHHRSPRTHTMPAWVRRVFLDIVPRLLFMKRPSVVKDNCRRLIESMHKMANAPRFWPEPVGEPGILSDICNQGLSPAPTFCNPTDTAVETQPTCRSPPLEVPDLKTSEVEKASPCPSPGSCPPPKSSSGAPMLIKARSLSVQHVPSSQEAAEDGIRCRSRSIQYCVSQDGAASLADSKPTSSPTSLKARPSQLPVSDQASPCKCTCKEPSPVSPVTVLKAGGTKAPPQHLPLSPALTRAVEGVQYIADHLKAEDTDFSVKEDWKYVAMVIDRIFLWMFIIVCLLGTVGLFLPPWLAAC
T2 sequence (P36544 whole entry): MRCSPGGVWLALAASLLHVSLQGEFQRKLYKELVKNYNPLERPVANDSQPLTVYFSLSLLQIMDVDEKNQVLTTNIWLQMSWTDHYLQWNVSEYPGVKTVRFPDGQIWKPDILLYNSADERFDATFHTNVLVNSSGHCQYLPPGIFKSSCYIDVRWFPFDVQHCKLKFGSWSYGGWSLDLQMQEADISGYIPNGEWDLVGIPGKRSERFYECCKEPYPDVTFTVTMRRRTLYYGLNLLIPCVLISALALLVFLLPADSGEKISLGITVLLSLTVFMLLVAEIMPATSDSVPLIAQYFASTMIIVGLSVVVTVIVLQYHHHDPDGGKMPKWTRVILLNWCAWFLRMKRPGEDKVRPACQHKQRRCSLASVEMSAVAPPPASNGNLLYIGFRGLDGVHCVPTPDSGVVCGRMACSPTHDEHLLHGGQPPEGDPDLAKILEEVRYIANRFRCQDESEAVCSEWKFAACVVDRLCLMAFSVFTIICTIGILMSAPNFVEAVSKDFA

Compound: O=C1CC[C@@]2(O)[C@H]3Cc4ccc(O)c5c4[C@@]2(CCN3CC2CC2)[C@H]1O5 [NALTREXONE]
- pIC50 [1]: 3.86
- pIC50 [2]: 3.85
- pIC50 [3]: 4.51
- Increase [4]: 169%
- pIC50 [5]: 4.60
- pIC50 [6]: 4.52
- Increase [7]: 210%
- Increase [8]: 214%
- Increase [9]: 283%

Compound: CC(=O)OCC[N+](C)(C)C [ACETYLCHOLINE]
- Decay-time constant (HEK293 [10]): 202.53 ms
- Decay-time constant (HEK293 [11]): 547.88 ms
- Decay-time constant (HEK293 [12]): 543.11 ms
- Decay-time constant (HEK293 [13]): 467.84 ms
- Decay-time constant (HEK293 [14]): 508.74 ms
- Decay-time constant (HEK293 [15]): 257.74 ms
- Decay-time constant (HEK293 [16]): 509.96 ms
- Decay-time constant (HEK293 [17]): 422.02 ms
- Decay-time constant (HEK293 [18]): 495.98 ms
